Results taken from ChEMBL document CHEMBL1143211, “Inhibitors of proteases and amide hydrolases that employ an alpha-ketoheterocycle as a key enabling functionality” (Bioorg Med Chem, 2008).
Converted amounts (≈) assume the structure as drawn. One block for each compound: values may come before it. Where a SMILES comes first, the peptide text is derived from it. [ ]: non-standard residue; d: D form. The star is where a group is joined. Pyrazinecarbonyl = O=C(c1cnccn1)*; Hyp = O=C(O)[C@@H]1C[C@@H](O)CN1; Abu = CC[C@H](N)C(=O)O; Bn = c1ccc(C*)cc1

What was measured:
[1] = Inhibition of post-glutamyl peptide hydrolase-like activity of human 20S proteasome
PC-3 = assay: Growth inhibition of human PC3 cells; format: functional, cell-based
[2] = Inhibition of trypsin-like activity of human 20S proteasome
[3] = Selectivity for human neutrophil elastase over chymotrypsin
[4] = Selectivity for human neutrophil elastase over trypsin
[5] = Selectivity for human neutrophil elastase over cathepsinn G
Canis familiaris = assay: Antithrombotic activity in iv dosed dog areteriovenous shunt model assessed as inhibition of thrombus accumulation; format: functional; settings: Canis lupus familiaris
Platelet = assay: Antithrombotic activity assessed as inhibition of alpha-thrombin-induced human platelet aggregation; format: functional, cell-based
Complement factor B = Complement factor B (Homo sapiens, UniProt P00751); assay: Inhibition of C3 convertase
Trypanosoma cruzi = assay: microbe, parasite or virus in culture; settings: read-out: ED50
[6] = test system: Trypanosoma brucei rhodesiense; assay: microbe, parasite or virus in culture; settings: read-out: ED50
[7] = Inhibition of Escherichia coli glycinamide ribonucleotide transformylase
[8] = biological target: T1, Trifunctional purine biosynthetic protein adenosine-3 (Homo sapiens, UniProt P22102); assay: Inhibition of human glycinamide ribonucleotide transformylase
T1 sequence (P22102 whole entry): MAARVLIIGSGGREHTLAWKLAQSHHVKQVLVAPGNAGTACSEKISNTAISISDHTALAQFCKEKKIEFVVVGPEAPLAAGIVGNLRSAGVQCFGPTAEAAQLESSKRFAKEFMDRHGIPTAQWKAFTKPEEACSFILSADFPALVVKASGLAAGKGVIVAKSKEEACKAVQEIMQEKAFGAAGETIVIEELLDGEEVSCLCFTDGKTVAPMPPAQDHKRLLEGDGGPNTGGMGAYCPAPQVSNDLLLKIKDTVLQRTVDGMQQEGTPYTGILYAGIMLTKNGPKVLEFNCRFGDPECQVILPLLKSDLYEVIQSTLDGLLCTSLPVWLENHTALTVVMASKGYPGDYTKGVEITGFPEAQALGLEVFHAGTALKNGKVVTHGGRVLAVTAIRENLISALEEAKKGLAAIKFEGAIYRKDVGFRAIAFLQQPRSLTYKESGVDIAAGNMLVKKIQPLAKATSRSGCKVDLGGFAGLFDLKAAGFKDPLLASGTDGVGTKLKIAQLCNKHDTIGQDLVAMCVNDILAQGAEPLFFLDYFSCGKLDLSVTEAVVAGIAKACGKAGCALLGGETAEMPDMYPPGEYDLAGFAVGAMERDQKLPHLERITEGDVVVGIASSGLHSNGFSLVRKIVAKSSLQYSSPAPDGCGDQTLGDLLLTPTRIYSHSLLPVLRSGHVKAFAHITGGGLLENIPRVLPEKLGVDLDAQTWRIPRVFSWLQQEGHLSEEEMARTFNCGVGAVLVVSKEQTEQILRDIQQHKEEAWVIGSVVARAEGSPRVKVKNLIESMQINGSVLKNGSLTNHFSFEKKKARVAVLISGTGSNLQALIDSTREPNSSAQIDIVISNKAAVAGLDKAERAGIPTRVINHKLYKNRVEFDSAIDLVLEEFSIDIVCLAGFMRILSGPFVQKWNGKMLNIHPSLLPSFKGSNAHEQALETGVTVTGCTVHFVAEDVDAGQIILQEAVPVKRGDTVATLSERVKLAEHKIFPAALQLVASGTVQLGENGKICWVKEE

[9] = biological target: Bifunctional purine biosynthesis protein ATIC (Homo sapiens, UniProt P31939); assay: Inhibition of human aminoimidazole carboxamide transformylase
Chain of Bifunctional purine biosynthesis protein ATIC (P31939 whole entry): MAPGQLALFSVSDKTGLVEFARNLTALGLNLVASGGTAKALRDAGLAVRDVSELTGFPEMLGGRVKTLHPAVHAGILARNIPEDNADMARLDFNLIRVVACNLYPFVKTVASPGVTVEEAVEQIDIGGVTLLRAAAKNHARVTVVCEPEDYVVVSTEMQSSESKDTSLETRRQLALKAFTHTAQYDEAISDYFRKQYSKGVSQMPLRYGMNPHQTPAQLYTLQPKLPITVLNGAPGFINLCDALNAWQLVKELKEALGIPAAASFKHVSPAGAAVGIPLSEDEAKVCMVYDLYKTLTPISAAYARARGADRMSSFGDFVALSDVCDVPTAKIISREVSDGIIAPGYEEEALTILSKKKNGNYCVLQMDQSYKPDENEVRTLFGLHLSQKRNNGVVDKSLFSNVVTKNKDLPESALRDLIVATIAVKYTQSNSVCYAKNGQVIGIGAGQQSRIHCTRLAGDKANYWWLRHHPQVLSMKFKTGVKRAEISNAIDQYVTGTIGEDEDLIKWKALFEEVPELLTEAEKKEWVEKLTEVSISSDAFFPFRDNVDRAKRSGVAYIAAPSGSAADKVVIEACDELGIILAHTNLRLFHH

[10] = Inhibition of HCV NS34A protease; set-up: species or system Hepacivirus hominis
[11] = Selectivity for human chymase over cathepsin G
[12] = Oral bioavailability in rat; format: ADME, organism-based; settings: in vivo
Chymase = Chymase (Homo sapiens, UniProt P23946)
Chain of Chymase (P23946 whole entry): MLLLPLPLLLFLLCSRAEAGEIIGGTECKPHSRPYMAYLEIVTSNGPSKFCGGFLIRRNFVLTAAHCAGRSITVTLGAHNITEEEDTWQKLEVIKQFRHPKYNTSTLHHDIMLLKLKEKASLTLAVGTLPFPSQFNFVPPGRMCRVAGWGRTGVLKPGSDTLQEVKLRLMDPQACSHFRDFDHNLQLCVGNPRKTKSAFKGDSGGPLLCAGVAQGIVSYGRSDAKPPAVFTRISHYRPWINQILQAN

[13] = Selectivity for human chymase over bovine chymotrypsin
Coagulation factor XI = Coagulation factor XI (Homo sapiens, UniProt P03951)
Chain of Coagulation factor XI (P03951 19-387 limits assumed): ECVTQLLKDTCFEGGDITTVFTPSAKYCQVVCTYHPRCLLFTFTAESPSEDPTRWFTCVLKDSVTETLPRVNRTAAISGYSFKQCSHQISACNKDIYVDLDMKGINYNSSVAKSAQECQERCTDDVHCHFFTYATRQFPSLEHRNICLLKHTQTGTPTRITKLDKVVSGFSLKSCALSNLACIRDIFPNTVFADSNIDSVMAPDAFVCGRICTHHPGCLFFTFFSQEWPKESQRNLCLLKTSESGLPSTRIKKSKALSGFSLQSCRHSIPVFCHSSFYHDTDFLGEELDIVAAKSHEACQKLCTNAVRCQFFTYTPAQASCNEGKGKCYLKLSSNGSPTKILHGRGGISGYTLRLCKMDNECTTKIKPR
Chain of Coagulation factor XI (P03951 388-625 limits assumed): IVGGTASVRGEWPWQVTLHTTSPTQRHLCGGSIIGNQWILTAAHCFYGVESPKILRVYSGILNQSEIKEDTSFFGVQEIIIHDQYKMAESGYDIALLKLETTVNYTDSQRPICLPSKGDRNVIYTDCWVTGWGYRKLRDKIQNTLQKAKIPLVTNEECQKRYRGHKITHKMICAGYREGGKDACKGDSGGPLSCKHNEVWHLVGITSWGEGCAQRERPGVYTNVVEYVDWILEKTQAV

Prothrombin = Prothrombin (Homo sapiens, UniProt P00734); assay: Inhibition of human alpha-thrombin
Coagulation factor X = Coagulation factor X (Homo sapiens, UniProt P00742); assay: Inhibition of human factor 10a
Chain of Coagulation factor X (P00742 41-179 limits assumed): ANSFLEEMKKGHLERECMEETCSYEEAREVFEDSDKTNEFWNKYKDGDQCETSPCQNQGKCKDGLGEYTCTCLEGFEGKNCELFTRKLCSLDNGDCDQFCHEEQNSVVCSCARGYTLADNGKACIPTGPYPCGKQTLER
Chain of Coagulation factor X (P00742 235-488 limits assumed): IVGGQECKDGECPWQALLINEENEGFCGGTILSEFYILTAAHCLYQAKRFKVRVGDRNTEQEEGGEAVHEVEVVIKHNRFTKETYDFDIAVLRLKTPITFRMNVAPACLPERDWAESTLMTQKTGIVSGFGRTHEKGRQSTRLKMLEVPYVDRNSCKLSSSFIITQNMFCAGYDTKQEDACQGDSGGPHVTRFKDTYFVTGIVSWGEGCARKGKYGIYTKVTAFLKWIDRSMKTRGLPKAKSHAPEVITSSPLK

Beta-lactamase = Beta-lactamase (Enterobacter cloacae, UniProt P05364); assay: Inhibition of Enterobacter cloacae beta lactamase
Chain of Beta-lactamase (P05364 whole entry): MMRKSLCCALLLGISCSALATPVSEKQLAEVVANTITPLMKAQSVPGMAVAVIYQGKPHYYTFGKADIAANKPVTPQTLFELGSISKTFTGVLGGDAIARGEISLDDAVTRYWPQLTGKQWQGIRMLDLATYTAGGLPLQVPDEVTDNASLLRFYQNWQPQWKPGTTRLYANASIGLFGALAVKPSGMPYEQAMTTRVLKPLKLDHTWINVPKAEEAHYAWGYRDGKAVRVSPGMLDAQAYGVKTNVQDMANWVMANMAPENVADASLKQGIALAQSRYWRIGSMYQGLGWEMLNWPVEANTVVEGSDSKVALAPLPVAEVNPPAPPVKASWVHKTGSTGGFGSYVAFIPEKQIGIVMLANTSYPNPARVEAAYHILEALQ

[14] = Inhibition of Staphylococcus aureus methionine aminopeptidase
Proline iminopeptidase = Proline iminopeptidase (Serratia marcescens, UniProt O32449); assay: Inhibition of Serratia marcescens prolyl aminopeptidase
Chain of Proline iminopeptidase (O32449 whole entry): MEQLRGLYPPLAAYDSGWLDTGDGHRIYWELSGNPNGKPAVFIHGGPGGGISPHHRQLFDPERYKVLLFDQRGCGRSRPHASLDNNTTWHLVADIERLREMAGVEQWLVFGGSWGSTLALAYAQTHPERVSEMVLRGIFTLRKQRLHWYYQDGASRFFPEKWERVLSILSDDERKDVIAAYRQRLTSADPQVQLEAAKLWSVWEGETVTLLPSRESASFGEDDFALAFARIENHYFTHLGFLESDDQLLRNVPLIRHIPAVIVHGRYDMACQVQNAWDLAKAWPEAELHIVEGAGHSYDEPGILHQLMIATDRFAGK

[15] = Inhibition of Trypanosoma cruzi prolyl endopeptidase Tc80
Trypsin = Trypsin (Homo sapiens, UniProt P07477+P07478+P35030); assay: Inhibition of human trypsin at 100 uM; format: protein assay
[16] = biological target: Tissue-type plasminogen activator (Homo sapiens, UniProt P00750); assay: Inhibition of tPA
Chain of Tissue-type plasminogen activator (P00750 whole entry): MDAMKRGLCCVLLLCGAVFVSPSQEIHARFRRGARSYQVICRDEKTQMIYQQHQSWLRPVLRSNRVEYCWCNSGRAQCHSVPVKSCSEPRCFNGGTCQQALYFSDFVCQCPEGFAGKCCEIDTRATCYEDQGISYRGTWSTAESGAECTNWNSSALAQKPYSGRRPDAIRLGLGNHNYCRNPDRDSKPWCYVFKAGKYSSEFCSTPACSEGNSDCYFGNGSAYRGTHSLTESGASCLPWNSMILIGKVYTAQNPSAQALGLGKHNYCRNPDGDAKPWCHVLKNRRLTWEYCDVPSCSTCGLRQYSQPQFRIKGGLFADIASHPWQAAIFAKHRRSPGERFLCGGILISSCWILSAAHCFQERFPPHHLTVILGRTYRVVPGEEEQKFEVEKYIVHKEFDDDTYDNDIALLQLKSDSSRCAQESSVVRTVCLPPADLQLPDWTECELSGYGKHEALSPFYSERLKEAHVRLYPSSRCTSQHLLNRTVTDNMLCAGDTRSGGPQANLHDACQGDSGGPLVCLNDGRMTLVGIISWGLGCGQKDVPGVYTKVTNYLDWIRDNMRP

Plasminogen = Plasminogen (Homo sapiens, UniProt P00747); assay: Inhibition of plasmin
Plasma kallikrein = Plasma kallikrein (Homo sapiens, UniProt P03952); assay: Inhibition of kallikrein
Chain of Plasma kallikrein (P03952 20-390 limits assumed): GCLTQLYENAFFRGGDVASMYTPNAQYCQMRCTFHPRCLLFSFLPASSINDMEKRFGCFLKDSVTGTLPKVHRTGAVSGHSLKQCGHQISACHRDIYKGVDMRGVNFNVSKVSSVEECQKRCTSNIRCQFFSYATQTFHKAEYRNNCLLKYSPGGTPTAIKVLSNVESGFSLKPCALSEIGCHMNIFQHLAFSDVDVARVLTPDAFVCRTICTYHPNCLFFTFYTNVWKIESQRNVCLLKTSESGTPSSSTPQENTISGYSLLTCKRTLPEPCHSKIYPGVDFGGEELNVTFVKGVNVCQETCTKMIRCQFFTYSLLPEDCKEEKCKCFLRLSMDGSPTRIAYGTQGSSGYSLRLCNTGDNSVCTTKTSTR
Chain of Plasma kallikrein (P03952 391-638 limits assumed): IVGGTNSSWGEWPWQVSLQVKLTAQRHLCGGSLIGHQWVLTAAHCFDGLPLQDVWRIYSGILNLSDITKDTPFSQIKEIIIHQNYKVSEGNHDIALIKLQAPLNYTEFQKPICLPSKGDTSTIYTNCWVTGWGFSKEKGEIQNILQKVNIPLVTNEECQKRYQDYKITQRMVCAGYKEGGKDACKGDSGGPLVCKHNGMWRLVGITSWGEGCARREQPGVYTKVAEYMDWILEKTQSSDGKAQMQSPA

Homo sapiens [17] = species on record: Homo sapiens; assay: Selectivity for human beta-tryptase over human alpha thrombin
[18] = Selectivity for human beta-tryptase over plasmin
[19] = Selectivity for human beta-tryptase over uPA
[20] = Inhibition of human beta-tryptase
[21] = Selectivity for human beta-tryptase over trypsin
[22] = Selectivity for human beta-tryptase over kallikrein
Coagulation factor XII = Coagulation factor XII (Homo sapiens, UniProt P00748); assay: Inhibition of factor 12a
Chain of Coagulation factor XII (P00748 20-372 limits assumed): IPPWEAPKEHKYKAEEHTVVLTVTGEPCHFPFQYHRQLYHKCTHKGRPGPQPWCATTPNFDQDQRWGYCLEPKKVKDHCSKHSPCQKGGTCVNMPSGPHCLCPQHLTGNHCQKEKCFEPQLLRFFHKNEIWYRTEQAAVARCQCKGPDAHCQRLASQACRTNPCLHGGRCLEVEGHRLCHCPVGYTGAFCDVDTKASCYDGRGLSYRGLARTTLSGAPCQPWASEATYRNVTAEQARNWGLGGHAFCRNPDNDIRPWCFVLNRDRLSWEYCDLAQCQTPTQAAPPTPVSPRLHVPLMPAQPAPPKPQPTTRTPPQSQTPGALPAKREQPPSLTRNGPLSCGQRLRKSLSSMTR
Chain of Coagulation factor XII (P00748 373-615 limits assumed): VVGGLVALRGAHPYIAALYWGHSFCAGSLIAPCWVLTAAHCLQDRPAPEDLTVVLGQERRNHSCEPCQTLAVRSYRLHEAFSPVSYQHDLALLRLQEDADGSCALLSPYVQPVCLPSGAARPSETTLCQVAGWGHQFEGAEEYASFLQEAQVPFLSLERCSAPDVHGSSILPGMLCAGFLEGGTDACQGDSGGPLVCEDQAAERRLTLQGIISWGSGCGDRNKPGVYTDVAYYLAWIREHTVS

Coagulation factor VII = Coagulation factor VII (Homo sapiens, UniProt P08709); assay: Inhibition of human factor 7a
Chain of Coagulation factor VII (P08709 61-212 limits assumed): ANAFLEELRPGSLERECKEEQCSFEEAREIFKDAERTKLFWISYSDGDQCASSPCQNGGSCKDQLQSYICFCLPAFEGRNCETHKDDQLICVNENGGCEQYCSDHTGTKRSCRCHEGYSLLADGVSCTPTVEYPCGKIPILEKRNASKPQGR
Chain of Coagulation factor VII (P08709 213-466 limits assumed): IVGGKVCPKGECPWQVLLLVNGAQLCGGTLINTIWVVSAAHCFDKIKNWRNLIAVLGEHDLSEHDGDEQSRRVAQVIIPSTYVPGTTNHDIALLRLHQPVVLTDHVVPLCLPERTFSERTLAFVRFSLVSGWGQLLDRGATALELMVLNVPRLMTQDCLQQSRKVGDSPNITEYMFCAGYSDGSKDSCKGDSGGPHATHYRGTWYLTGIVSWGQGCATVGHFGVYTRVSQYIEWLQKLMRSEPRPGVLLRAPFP

Hamster = assay: Efficacy in po dosed hamster acute lung injury model; format: functional; settings: Cricetinae
[23] = Oral bioavailability in rat at 3 mg/kg; format: ADME, organism-based; settings: in vivo
[24] = Tmax in rat at 3 mg/kg, po; format: ADME, organism-based; set-up: dose 3 mg/kg, route oral; settings: in vivo
Homo sapiens [25] = species on record: Homo sapiens; assay: Selectivity for human recombinant cathepsin S over human recombinant K
Homo sapiens [26] = species on record: Homo sapiens; assay: Selectivity for human recombinant cathepsin S over human cathepsin B
Homo sapiens [27] = species on record: Homo sapiens; assay: Selectivity for human recombinant cathepsin S over human recombinant L
[28] = Inhibition of Porphyromonas gingivalis arginine gingipain
[29] = Selectivity for Porphyromonas gingivalis arginine gingipain over cathepsin B
[30] = Selectivity for Porphyromonas gingivalis arginine gingipain over trypsin
Mus musculus = assay: Analgesic activity in iv dosed mouse; format: functional
Osteoclast = assay: Inhibition of bovine bone resorption in rabbit osteoclasts; format: functional, cell-based; settings: Oryctolagus cuniculus

Compound: Cc1ccc(S(=O)(=O)N[C@@H](CC(=O)NCC(C)(C)C)C(=O)N[C@@H](C)C(=O)N[C@@H](CC(C)C)C(=O)c2nnc(-c3ccccc3)o2)cc1
Ki [1]: > 900 µM
IC50 (PC-3): 0.2 µM
Ki [2]: > 300 µM

Compound: O=C(c1cc(-c2ccccc2)on1)[C@@H]1CCCN1C(=O)[C@@H]1CCCN1C(=O)OCc1ccccc1
EC50 (Trypanosoma cruzi): 6700 µg/mL (≈ 14.1 mM)
EC50 [6]: 2200 µg/mL (≈ 4.65 mM)

Compound: CC(C)[C@H](NC(=O)[C@H](CC1CCCCC1)NC(=O)N[C@H](C)c1ccc(Br)cc1)C(=O)N[C@@H](CCCNC(=N)N)C(=O)c1nccs1
IC50 (Coagulation factor XI): 0.01 µM
IC50 (Prothrombin): 0.98 µM
IC50 (Coagulation factor X): 2.7 µM

Compound: O=C(Cc1ccccc1)NCC(=O)c1nc(C(=O)O)cs1
Ki (Beta-lactamase): 110 µM

Compound: CSCCC(N)C(=O)c1ccccn1 (racemic)
IC50 [14]: 16 µM

Compound: CC(C)(C)c1nnc(C(=O)[C@@H]2CCCN2)o1
Ki (Proline iminopeptidase): 0.5 µM

Compound: CSCCC(N)C(=O)c1nccs1 (racemic)
IC50 [14]: 19 µM

Compound: O=C(C1=NOC(COCc2ccccc2)C1)[C@@H]1CCCN1C(=O)[C@@H]1CCCN1C(=O)OCc1ccccc1 (some centres not stated)
Ki [15]: 0.0012 µM

Compound: NC(N)=NCCC[C@H](NC(=O)CNC(=O)[C@@H](CCCN=C(N)N)NS(=O)(=O)CCc1ccccc1)C(=O)c1nc2ccccc2o1
IC50 [16]: 0.029 µM
IC50 (Plasminogen): 0.036 µM
IC50 (Coagulation factor X): 0.002 µM
IC50 (Plasma kallikrein): 0.013 µM

Compound: CCOC(=O)N[C@@H](CCCCN)C(=O)c1noc(Cc2ccc(OCCc3ccccc3)cc2)n1
Selectivity ratio (Homo sapiens [17]): > 1000
Selectivity ratio [18]: 80
Selectivity ratio [19]: > 1000
bioavailability [12]: 8%
Ki [20]: 0.005 µM
Selectivity ratio [21]: 35
Selectivity ratio [22]: > 1000

Compound: CC[C@H](C)[C@H](NC(=O)[C@@H](Cc1ccccc1)NS(=O)(=O)Cc1ccccc1)C(=O)N[C@@H](CCCN=C(N)N)C(=O)c1nccs1
IC50 (Coagulation factor VII): 0.3 µM
IC50 (Prothrombin): 19 µM
IC50 (Coagulation factor X): 0.38 µM

Compound: O=C(N[C@H](C(=O)c1nc2ccccc2o1)C1CC1)O[C@@H](CC1CCCCC1)C(=O)N1CCOCC1
Selectivity ratio (Homo sapiens [25]): > 100
Selectivity ratio (Homo sapiens [26]): > 100
Selectivity ratio (Homo sapiens [27]): > 100

Compound: NCCCC[C@H](NC(=O)C1CCCN(C(=O)CCc2ccccc2)C1)C(=O)c1nc2ccccc2s1 (some centres not stated)
Ki [28]: 0.0009 µM
Selectivity ratio [29]: 120000
Selectivity ratio [30]: 30

Compound: O=C(CCCCCCc1ccccc1)c1ncc(-c2ccccn2)o1
ED50 (Mus musculus): 1.9 mg/kg

Compound: CCC[C@H](NC(=O)C1(NC(=O)c2ccc(N(C)C)cc2)CCCCC1)C(=O)c1nnc(-c2ccco2)o1
IC50 (Osteoclast): 0.13 µM

Compound: CC(C)C[C@H](NC(=O)OCc1ccccc1)C(=O)NCC(=O)N1CCC[C@H]1C(=O)c1nc2ccccc2s1
IC50 [15]: 0.2 µM

Second part, led by results:

Selectivity ratio [3]: > 1000
Selectivity ratio [4]: > 1000
Selectivity ratio [5]: > 1000
Compound: Cc1cccc(Cc2nnc(C(=O)[C@@H](NC(=O)[C@@H]3CCCN3C(=O)[C@@H](NC(=O)OCc3ccccc3)C(C)C)C(C)C)o2)c1

IC50 (Platelet): 0.03 µM
Compound: CN[C@H](Cc1ccccc1)C(=O)N1CCC[C@H]1C(=O)N[C@@H](CCCNC(=N)N)C(=O)c1nc2ccc(C(=O)O)cc2s1
ED50 (Canis familiaris): 0.1 mg/kg

IC50 (Complement factor B): 3.4 µM
Compound: CC[C@H](C)[C@H](N)C(=O)N[C@H]1CSSC[C@@H](C(=O)N[C@H](C(N)=O)[C@@H](C)O)NC(=O)[C@H](CCCN=C(N)N)NC(=O)[C@H](Cc2cnc[nH]2)NC(=O)[C@H](Cc2cnc[nH]2)NC(=O)CNC(=O)[C@H](Cc2c[nH]c3ccccc23)NC(=O)[C@H](CC(=O)O)NC(=O)[C@H](CCC(N)=O)NC(=O)[C@H](C(C)C)NC(=O)[C@H](C(C)C)NC1=O [COMPSTATIN]

Ki [8]: > 100 µM
Ki [9]: > 100 µM
Compound: Nc1nc(N)c(CCCCCC(=O)c2nc3ccccc3o2)c(=O)[nH]1
Ki [7]: 15 µM

Ki [10]: 16 µM
Compound: CC[C@@H](C=O)NC(=O)[C@@H]1C[C@@H](OCc2ccccc2)CN1C(=O)[C@@H](NC(=O)[C@@H](NC(=O)c1cnccn1)C(C)C)C(C)C (Pyrazinecarbonyl-VV[Hyp](Bn)[Abu]-aldehyde)

Selectivity ratio [11]: 80
bioavailability [12]: 20%
Ki (Chymase): 0.0048 µM
Selectivity ratio [13]: 200
Compound: COC(=O)c1ccc2oc(C(=O)[C@H](Cc3ccccc3)NC(=O)Cn3c(-c4cccc(OC)c4)ncc(N)c3=O)nc2c1

inhibition (Trypsin): 80%
Compound: N=C(N)N1CCC[C@@H](C[C@H](NC(=O)CN2C(=O)CN(CCCc3ccccc3)C(=O)[C@@H]2Cc2ccccc2)C(=O)c2nccs2)C1

Ki [10]: 35 µM
Compound: CC[C@H](NC(=O)[C@@H]1C[C@@H](OCc2ccccc2)CN1C(=O)[C@@H](NC(=O)[C@@H](NC(=O)c1cnccn1)C(C)C)C(C)C)C(=O)c1nnc(-c2ccccc2)o1

IC50 (Coagulation factor XII): 0.05 µM
IC50 (Plasma kallikrein): 0.014 µM
Compound: NC(N)=NCCC[C@H](NC(=O)CNC(=O)[C@@H](CCCN=C(N)N)NS(=O)(=O)Cc1ccccc1)C(=O)c1nccs1

bioavailability [23]: 50%
Tmax [24]: 36 min
Compound: CC(C)C(NC(=O)Cn1c(-c2ccccc2)ncc(N)c1=O)C(=O)c1nnc(C(C)(C)C)o1 (racemic)
ED50 (Hamster): 5.1 mg/kg
